In brackets after ≈: the same amount, converted by molar mass. Each block holds one molecule with its values, some of them ahead of it.
Experiments:
[1] = test system: A. baumannii; assay: MIC50 for inhibition ring formation (MICfir), agar plate; format: cell-based; conditions: Acinetobacter baumannii; A.b; read-out: 50% minimum inhibitory concentrations (MIC50) needed for growth ring formation
[2] = test system: P. aeruginosa; assay: in vitro antibacterial activity (MIC50); format: cell-based
[3] = test system: 4 bacterial strains (A. bumannii, P. aeruginosa, P. mirabilis and S. aureus); assay: in vitro antibacterial activity (MIC50), summary over strains; format: cell-based; conditions: against all 4 bacterial strains
[4] = test system: K. pneumoniae; assay: MIC50 for inhibition ring formation (MICfir), agar plate; format: cell-based; conditions: Klebsiella pneumoniae; K.p; read-out: 50% minimum inhibitory concentrations (MIC50) needed for growth ring formation
[5] = test system: S. aureus methicillin resistant strain; assay: as above; format: cell-based; conditions: Staphylococcus aureus, MRSA; read-out: 50% minimum inhibitory concentrations (MIC50) needed for growth ring formation
[6] = test system: P.m; assay: as above; format: cell-based; conditions: Proteus mirabilis, read-out: 50% minimum inhibitory concentrations (MIC50) needed for growth ring formation
[7] = test system: P. aeruginosa; assay: as above; format: cell-based; conditions: Pseudomonas aeruginosa; P.a; read-out: 50% minimum inhibitory concentrations (MIC50) needed for growth ring formation
[8] = test system: A. bumannii; assay: in vitro antibacterial activity (MIC50); format: cell-based; conditions: for Amount of Antimicrobial Agent required for Inhibition / MIC50 / in vitro antibacterial activity of individual antibiotic (MIC50): A. bumannii; for reduction of MIC50 of Rifampicin in cocktail with silver (control = 1) / reduction of MIC50 of Tobramycin in cocktail with silver (control = 1): A. baumannii
[9] = test system: P. mirabilis; assay: in vitro antibacterial activity (MIC50); format: cell-based
[10] = test system: S. aureus; assay: in vitro antibacterial activity (MIC50); format: cell-based; conditions: for MIC50: Staphylococcus aureus
[11] = test system: S. aureus; assay: MIC50 for inhibition ring formation (MICfir), agar plate; format: cell-based; conditions: Staphylococcus aureus; S.a; read-out: 50% minimum inhibitory concentrations (MIC50) needed for growth ring formation
[12] = test system: A. baumannii; assay: effect of storage time on antibiotic functionality; format: physicochemical; conditions: 1 mg/ml solution stored at 37° C., day 0 to day 35
Method: The effect of storage time on antibiotic functionality of tobramycin and rifampicin against A. baumannii were also tested. Tobramycin and rifampicin solutions (1 mg/ml in water and DMSO, respectively) were kept at room temperature (24° C.) or 37° C. for up to 35 days, and the antimicrobial activities of the antibiotics at different time points were tested by applying the antibiotics to A. Baumannii. MIC50 were determined and compared. […] P values for tobramycin and rifampicin (from day 0 to day 35) are 0.593 and 0.442 respectively (FIG. 3)

SMILES: [Ag+] [Silver Ion]
Amount of Antimicrobial Agent required for Inhibition [2]: 5.34 ± 3.07 mg/mL | reduction of MIC50 of Rifampicin in cocktail with silver (control = 1) ([2]; Silver Ion at Mic 12.5): 1.6 fold | reduction of MIC50 of Tobramycin in cocktail with silver (control = 1) ([2]; Silver Ion at Mic 12.5): 1.6 fold | reduction of MIC50 of Rifampicin in cocktail with silver (control = 1) ([2]; Silver Ion at Mic 25): 4.1 fold | reduction of MIC50 of Tobramycin in cocktail with silver (control = 1) ([2]; Silver Ion at Mic 25): 4.1 fold | reduction of MIC50 of Rifampicin in cocktail with silver (control = 1) ([2]; Silver Ion at Mic 50): 10.4 fold | reduction of MIC50 of Tobramycin in cocktail with silver (control = 1) ([2]; Silver Ion at Mic 50): 10.4 fold | Amount of Antimicrobial Agent required for Inhibition [8]: 1.52 ± 0.73 mg/mL | reduction of MIC50 of Rifampicin in cocktail with silver (control = 1) ([8]; Silver Ion at Mic 12.5): 1.73 fold | reduction of MIC50 of Tobramycin in cocktail with silver (control = 1) ([8]; Silver Ion at Mic 12.5): 2 fold | reduction of MIC50 of Rifampicin in cocktail with silver (control = 1) ([8]; Silver Ion at Mic 25): 3.6 fold | reduction of MIC50 of Tobramycin in cocktail with silver (control = 1) ([8]; Silver Ion at Mic 25): 4.2 fold | reduction of MIC50 of Rifampicin in cocktail with silver (control = 1) ([8]; Silver Ion at Mic 50): 9 fold | Amount of Antimicrobial Agent required for Inhibition [9]: 4.56 ± 1.49 mg/mL | reduction of MIC50 of Rifampicin in cocktail with silver (control = 1) ([9]; Silver Ion at Mic 12.5): 0.74 fold | reduction of MIC50 of Tobramycin in cocktail with silver (control = 1) ([9]; Silver Ion at Mic 12.5): 0.74 fold | reduction of MIC50 of Rifampicin in cocktail with silver (control = 1) ([9]; Silver Ion at Mic 25): 2.4 fold | reduction of MIC50 of Tobramycin in cocktail with silver (control = 1) ([9]; Silver Ion at Mic 25): 2.5 fold | reduction of MIC50 of Rifampicin in cocktail with silver (control = 1) ([9]; Silver Ion at Mic 50): 6.3 fold | reduction of MIC50 of Tobramycin in cocktail with silver (control = 1) ([9]; Silver Ion at Mic 50): 6.5 fold | reduction of MIC50 of Rifampicin in cocktail with silver (control = 1) ([10]; Silver Ion at Mic 12.5): 1 fold | reduction of MIC50 of Tobramycin in cocktail with silver (control = 1) ([10]; Silver Ion at Mic 12.5): 1.13 fold | reduction of MIC50 of Rifampicin in cocktail with silver (control = 1) ([10]; Silver Ion at Mic 25): 9.3 fold | reduction of MIC50 of Tobramycin in cocktail with silver (control = 1) ([10]; Silver Ion at Mic 25): 9.3 fold | reduction of MIC50 of Rifampicin in cocktail with silver (control = 1) ([10]; Silver Ion at Mic 50): 21 fold | reduction of MIC50 of Tobramycin in cocktail with silver (control = 1) ([10]; Silver Ion at Mic 50): 21 fold

SMILES: CN[C@H](CC(C)C)C(=O)N[C@H]1C(=O)N[C@@H](CC(N)=O)C(=O)N[C@H]2C(=O)N[C@H]3C(=O)N[C@H](C(=O)N[C@H](C(=O)O)c4cc(O)cc(O)c4-c4cc3ccc4O)[C@H](O)c3ccc(c(Cl)c3)Oc3cc2cc(c3O[C@@H]2O[C@H](CO)[C@@H](O)[C@H](O)[C@H]2O[C@H]2C[C@](C)(N)[C@H](O)[C@H](C)O2)Oc2ccc(cc2Cl)[C@H]1O [Vancomycin]
Amount of Antimicrobial Agent required for Inhibition [2]: >1000 mg/mL | in vitro antibacterial activity of individual antibiotic (MIC50) [2]: >1000 mg/mL | Amount of Antimicrobial Agent required for Inhibition [8]: 79.4 ± 4.1 mg/mL | in vitro antibacterial activity of individual antibiotic (MIC50) [8]: 79.4 ± 4.1 mg/mL | Amount of Antimicrobial Agent required for Inhibition [9]: >1000 mg/mL | in vitro antibacterial activity of individual antibiotic (MIC50) [9]: >1000 mg/mL

SMILES: CCC[C@@H]1C[C@@H](C(=O)N[C@@H]([C@H]2O[C@H](SC)[C@H](O)[C@@H](O)[C@H]2O)[C@H](C)Cl)N(C)C1 [Clindamycin]
Amount of Antimicrobial Agent required for Inhibition [2]: >1000 mg/mL | in vitro antibacterial activity of individual antibiotic (MIC50) [2]: >1000 mg/mL | Amount of Antimicrobial Agent required for Inhibition [8]: 2.72 ± 0.68 mg/mL | in vitro antibacterial activity of individual antibiotic (MIC50) [8]: 2.72 ± 0.68 mg/mL | Amount of Antimicrobial Agent required for Inhibition [9]: 23.88 ± 8.43 mg/mL | in vitro antibacterial activity of individual antibiotic (MIC50) [9]: 23.88 ± 8.43 mg/mL

The next lines start with results.

MIC50 [1]: 0.045 ± 0.0026 mg/mL (≈ 54.7 µM) | in vitro antibacterial activity of individual antibiotic (MIC50) [2]: 19.08 ± 6.14 mg/mL | MIC50 [3]: < 0.01 mg/mL | MIC50 [4]: 0.045 ± 0.0036 mg/mL (≈ 54.7 µM) | MIC50 [5]: 0.02 ± 0.001 µg/mL (≈ 0.0243 µM) | MIC50 [6]: 0.026 ± 0.0035 mg/mL (≈ 31.6 µM) | MIC50 [7]: 0.185 ± 0.0158 mg/mL (≈ 225 µM) | MIC50 [8]: ≤ 0.001 mg/mL | in vitro antibacterial activity of individual antibiotic (MIC50) [8]: 0.085 ± 0.01 mg/mL | in vitro antibacterial activity of individual antibiotic (MIC50) [9]: 3.77 ± 0.92 mg/mL | MIC50 [10]: ≤ 0.001 mg/mL | MIC50 [11]: 0.02 ± 0.001 µg/mL (≈ 0.0243 µM)
SMILES: CO[C@H]1/C=C/O[C@@]2(C)Oc3c(C)c(O)c4c(O)c(c(/C=N/N5CCN(C)CC5)c(O)c4c3C2=O)NC(=O)/C(C)=C\C=C\[C@H](C)[C@H](O)[C@@H](C)[C@@H](O)[C@@H](C)[C@H](OC(C)=O)[C@@H]1C [Rifampicin]
Amount of Antimicrobial Agent required for Inhibition [2]: 19.08 ± 6.14 mg/mL | Amount of Antimicrobial Agent required for Inhibition [8]: 0.085 ± 0.01 mg/mL | Amount of Antimicrobial Agent required for Inhibition [9]: 3.77 ± 0.92 mg/mL

in vitro antibacterial activity of individual antibiotic (MIC50) [2]: 0.91 ± 0.56 mg/mL | MIC50 [3]: < 0.01 mg/mL | in vitro antibacterial activity of individual antibiotic (MIC50) [8]: 10.25 ± 2.33 mg/mL | in vitro antibacterial activity of individual antibiotic (MIC50) [9]: 1.02 ± 0.01 mg/mL
SMILES: C[C@@H](O)[C@H]1C(=O)N2C(C(=O)O)=C(SCCN=CN)C[C@H]12 [Imipenem]
Amount of Antimicrobial Agent required for Inhibition [2]: 0.91 ± 0.56 mg/mL | Amount of Antimicrobial Agent required for Inhibition [8]: 10.25 ± 2.33 mg/mL | Amount of Antimicrobial Agent required for Inhibition [9]: 1.02 ± 0.01 mg/mL

MIC50 [1]: 0.0071 ± 0.0005 mg/mL (≈ 15.2 µM) | in vitro antibacterial activity of individual antibiotic (MIC50) [2]: 0.44 ± 0.12 mg/mL | MIC50 [3]: < 0.01 mg/mL | MIC50 [4]: 0.00038 ± 5e-05 mg/mL (≈ 0.813 µM) | MIC50 [5]: > 200 µg/mL | change of MIC50 on storage (antibiotic functionality) [12]: no significantly change | MIC50 [6]: 0.0031 ± 0.0002 mg/mL (≈ 6.63 µM) | MIC50 [7]: 0.0056 ± 0.0002 mg/mL (≈ 12 µM) | MIC50 [8]: ≤ 0.001 mg/mL | in vitro antibacterial activity of individual antibiotic (MIC50) [8]: 1.05 ± 0.02 mg/mL | in vitro antibacterial activity of individual antibiotic (MIC50) [9]: 7.2 ± 0.73 mg/mL | MIC50 [10]: ≤ 0.001 mg/mL | MIC50 [11]: 2.2 ± 0.16 µg/mL (≈ 4.71 µM)
SMILES: NC[C@H]1O[C@H](O[C@H]2[C@H](O)[C@@H](O[C@H]3O[C@H](CO)[C@@H](O)[C@H](N)[C@H]3O)[C@H](N)C[C@@H]2N)[C@H](N)C[C@@H]1O [Tobramycin]
Amount of Antimicrobial Agent required for Inhibition [2]: 0.44 ± 0.12 mg/mL | Amount of Antimicrobial Agent required for Inhibition [8]: 1.05 ± 0.02 mg/mL | Amount of Antimicrobial Agent required for Inhibition [9]: 7.2 ± 0.73 mg/mL

Source: US20130089599A1, “NANO-ENCAPSULATED THERAPEUTICS FOR CONTROLLED TREATMENT OF INFECTION AND OTHER DISEASES” (The United States of America as Represented by the …, priority 2011, published 2013)
